Experimental data published in patent US12435044B2, “Pyridazinone herbicides and pyridazinone intermediates used to prepare a herbicide” (FMC Corporation, priority 2018, dated 2025).

Columns and labels:
Format in all cases: in vivo
[1] = system: blackgrass (Alopecurus myosuroides); test: Test A postemergence greenhouse test
Procedure, shortened: (§1)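 Seeds were planted in a loam soil and sand blend and sprayed preemergence on the soil, while pot-grown plants 2 to 10 cm tall at the one- to two-leaf stage were treated postemergence. Plants then stayed in the greenhouse about 10 d before visual scoring of injury, 0–100.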

[2] = system: galium (catchweed bedstraw, Galium aparine); test: Test A postemergence greenhouse test
Procedure, shortened: as §1

[3] = system: barnyardgrass (Echinochloa crus-galli); test: Test C pre-/postemergence greenhouse test; settings: scale 0 to 100
Procedure, shortened: (§2)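 Test chemicals in a non-phytotoxic solvent mixture with surfactant; preemergence on seeds sown in silt loam, postemergence on plants 2–18 cm tall (1- to 4-leaf stage) in peat/vermiculite medium. Greenhouse for 13–21 d, then visual rating against untreated controls, 0 (no effect) to 100 (complete control).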

[4] = system: blackgrass (Alopecurus myosuroides); test: Test C pre-/postemergence greenhouse test; settings: scale 0 to 100
Procedure, shortened: as §2

corn (Zea mays) = test: Test C pre-/postemergence greenhouse test; settings: scale 0 to 100
Procedure, shortened: as §2

kochia (Kochia scoparia) = test: Test C pre-/postemergence greenhouse test; settings: scale 0 to 100
Procedure, shortened: as §2

[5] = system: lambsquarters (Chenopodium album); test: Test C pre-/postemergence greenhouse test; settings: Preemergence, scale 0 to 100
Procedure, shortened: as §2

[6] = system: morningglory (Ipomoea coccinea); test: Test C pre-/postemergence greenhouse test; settings: Preemergence, scale 0 to 100
Procedure, shortened: as §2

[7] = system: nutsedge, yellow (Cyperus esculentus); test: Test C pre-/postemergence greenhouse test; settings: Preemergence, scale 0 to 100
Procedure, shortened: as §2

[8] = system: ragweed (common ragweed, Ambrosia elatior); test: Test C pre-/postemergence greenhouse test; settings: scale 0 to 100
Procedure, shortened: as §2

[9] = system: surinam grass (Brachiaria decumbens); test: Test C pre-/postemergence greenhouse test; settings: Preemergence, scale 0 to 100
Procedure, shortened: as §2

[10] = system: waterhemp (common waterhemp, Amaranthus rudis); test: Test C pre-/postemergence greenhouse test; settings: scale 0 to 100
Procedure, shortened: as §2

Cc1ccc2ccc(F)cc2c1-c1c(O)c(Cl)nn(C)c1=O [Cpd. No. 21]
Plant response rating (0 to 100 scale) ([1]; 31 g ai/ha): 50 | Plant response rating (0 to 100 scale) ([1]; 125 g ai/ha): 70 | Plant response rating (0 to 100 scale) ([2]; 31 g ai/ha): 100 | Plant response rating (0 to 100 scale) ([2]; 125 g ai/ha): 100 | Plant response rating, Barnyardgrass ([3]; Postemergence, 16 g ai/ha): 60 | Plant response rating, Barnyardgrass ([3]; Postemergence, 31 g ai/ha): 85 | Plant response rating, Barnyardgrass ([3]; Postemergence, 62 g ai/ha): 90 | Plant response rating, Barnyardgrass ([3]; Postemergence, 125 g ai/ha): 90 | Plant response rating, Barnyardgrass ([3]; Preemergence, 31 g ai/ha): 75 | Plant response rating, Barnyardgrass ([3]; Preemergence, 61 g ai/ha): 25 | Plant response rating, Barnyardgrass ([3]; Preemergence, 62 g ai/ha): 85 | Plant response rating, Barnyardgrass ([3]; Preemergence, 125 g ai/ha): 95 | Plant response rating, Blackgrass ([4]; Postemergence, 16 g ai/ha): 35 | Plant response rating, Blackgrass ([4]; Postemergence, 31 g ai/ha): 60 | Plant response rating, Blackgrass ([4]; Postemergence, 62 g ai/ha): 65 | Plant response rating, Blackgrass ([4]; Postemergence, 125 g ai/ha): 70 | Plant response rating, Blackgrass ([4]; Preemergence, 31 g ai/ha): 50 | Plant response rating, Blackgrass ([4]; Preemergence, 61 g ai/ha): 35 | Plant response rating, Blackgrass ([4]; Preemergence, 62 g ai/ha): 85 | Plant response rating, Blackgrass ([4]; Preemergence, 125 g ai/ha): 85 | Plant response rating, Corn (corn (Zea mays); Postemergence, 16 g ai/ha): 0 | Plant response rating, Corn (corn (Zea mays); Postemergence, 31 g ai/ha): 0 | Plant response rating, Corn (corn (Zea mays); Postemergence, 62 g ai/ha): 15 | Plant response rating, Corn (corn (Zea mays); Postemergence, 125 g ai/ha): 18 | Plant response rating, Corn (corn (Zea mays); Preemergence, 31 g ai/ha): 0 | Plant response rating, Corn (corn (Zea mays); Preemergence, 61 g ai/ha): 0 | Plant response rating, Corn (corn (Zea mays); Preemergence, 62 g ai/ha): 5 | Plant response rating, Corn (corn (Zea mays); Preemergence, 125 g ai/ha): 20 | Plant response rating, Kochia (kochia (Kochia scoparia); Postemergence, 16 g ai/ha): 13 | Plant response rating, Kochia (kochia (Kochia scoparia); Postemergence, 31 g ai/ha): 18 | Plant response rating, Kochia (kochia (Kochia scoparia); Postemergence, 62 g ai/ha): 28 | Plant response rating, Kochia (kochia (Kochia scoparia); Postemergence, 125 g ai/ha): 28 | Plant response rating, Kochia (kochia (Kochia scoparia); Preemergence, 31 g ai/ha): 20 | Plant response rating, Kochia (kochia (Kochia scoparia); Preemergence, 61 g ai/ha): 5 | Plant response rating, Kochia (kochia (Kochia scoparia); Preemergence, 62 g ai/ha): 70 | Plant response rating, Kochia (kochia (Kochia scoparia); Preemergence, 125 g ai/ha): 90 | Plant response rating, Lambsquarters ([5]; 31 g ai/ha): 70 | Plant response rating, Lambsquarters ([5]; 61 g ai/ha): 75 | Plant response rating, Lambsquarters ([5]; 62 g ai/ha): 85 | Plant response rating, Lambsquarters ([5]; 125 g ai/ha): 98 | Plant response rating, Morningglory ([6]; 31 g ai/ha): 40 | Plant response rating, Morningglory ([6]; 61 g ai/ha): 5 | Plant response rating, Morningglory ([6]; 62 g ai/ha): 80 | Plant response rating, Morningglory ([6]; 125 g ai/ha): 95 | Plant response rating, Nutsedge, Yellow ([7]; 31 g ai/ha): 60 | Plant response rating, Nutsedge, Yellow ([7]; 61 g ai/ha): 30 | Plant response rating, Nutsedge, Yellow ([7]; 62 g ai/ha): 85 | Plant response rating, Nutsedge, Yellow ([7]; 125 g ai/ha): 95 | Plant response rating, Ragweed ([8]; Postemergence, 16 g ai/ha): 90 | Plant response rating, Ragweed ([8]; Postemergence, 31 g ai/ha): 95 | Plant response rating, Ragweed ([8]; Postemergence, 62 g ai/ha): 98 | Plant response rating, Ragweed ([8]; Postemergence, 125 g ai/ha): 98 | Plant response rating, Ragweed ([8]; Preemergence, 31 g ai/ha): 100 | Plant response rating, Ragweed ([8]; Preemergence, 61 g ai/ha): 45 | Plant response rating, Ragweed ([8]; Preemergence, 62 g ai/ha): 98 | Plant response rating, Ragweed ([8]; Preemergence, 125 g ai/ha): 95 | Plant response rating, Surinam Grass ([9]; 31 g ai/ha): 100 | Plant response rating, Surinam Grass ([9]; 61 g ai/ha): 80 | Plant response rating, Surinam Grass ([9]; 62 g ai/ha): 100 | Plant response rating, Surinam Grass ([9]; 125 g ai/ha): 100 | Plant response rating, Waterhemp ([10]; Postemergence, 16 g ai/ha): 80 | Plant response rating, Waterhemp ([10]; Postemergence, 31 g ai/ha): 85 | Plant response rating, Waterhemp ([10]; Postemergence, 62 g ai/ha): 98 | Plant response rating, Waterhemp ([10]; Postemergence, 125 g ai/ha): 90 | Plant response rating, Waterhemp ([10]; Preemergence, 31 g ai/ha): 85 | Plant response rating, Waterhemp ([10]; Preemergence, 61 g ai/ha): 80 | Plant response rating, Waterhemp ([10]; Preemergence, 62 g ai/ha): 95 | Plant response rating, Waterhemp ([10]; Preemergence, 125 g ai/ha): 98
